Data published in patent publication US9187428B2, “Substituted dicyanopyridines and use thereof” (Bayer Intellectual Property GmbH, priority 2010, dated 2015).
Converted amounts (≈) assume the structure as drawn. Where a name gives a salt, the structure may show the parent alone. Read-outs that look alike come from different tables or passages of the source.

How the values were obtained:
A1 receptor = A1 receptor (Rattus norvegicus (Rat), UniProt P25099); experiment: A1 receptor GTP shift binding assay with rat brain membranes and [3H]DPCPX; details: rat brain membranes, 0.4 nM [3H]DPCPX, presence and absence of 1 mM GTP
Experimental: B-6. GTP Shift Experiment
Preparation of the Brain Membrane
The brains of male Wistar rats are removed and immediately transferred into an ice-cooled 0.32 mol/l sucrose solution. The tissue is comminuted using a glass-Teflon homogenizer and then centrifuged (1000×g for 10 minutes). The supernatant is then ultracentrifuged at 30 000 g for 30 minutes. The pellet obtained in this manner is resuspended in 10 ml of water and allowed to stand on ice for 30 minutes. After a final centrifugation step at 48 000 g for 10 min, the membranes are resuspended in 50 mmol/l Tris-HCl buffer, pH 7.4, and incubated with 2 U/ml of adenosine deaminase at 37° C. for 30 min. This is followed by a protein determination according to Bradford. The membranes are frozen in small aliquots and stored at −80° C. until required for the binding assay.
The A1 receptor GTP shift binding assay is carried out using rat brain membranes and 0.4 nM [^3H] […] 10 μg of membrane protein are incubated at 37° C. for 20 min with 0.4 nM [^3H]DPCPX and adenosine A1 agonists in various concentrations in buffer (50 mM tris-HCl, pH 7.4, 2 U/ml ADA) in the presence and absence of 1 mM guanosine triphosphate (GTP). […] The radioactivity on the filter is measured with addition of 100 μl of scintillation cocktail in a Microbeta TriLux beta counter (PerkinElmer, Massachusetts, USA). […]

[1] = Determination of the solubility; format: physicochemical; details: kinetic from dmso stock
Experimental: B-8. Determination of the Solubility
• PBS buffer pH 6.5: 90.00 g of NaCl p.a. (for example from Merck, Art. No. 1.06404.1000), 13.61 g of KH2PO4 p.a. (for example from Merck, Art. No. 1.04873.1000) and 83.35 g of 1 N aqueous sodium hydroxide solution (for example from Bernd Kraft GmbH, Art. No. 01030.4000) are weighed into a 1 liter measuring flask, the flask is filled with distilled water to 1 liter and the mixture is stirred for 1 hour. Using 1 N hydrochloric acid (for example from Merck, Art. No. 1.09057.1000) the pH is then adjusted to 6.5. • PEG/water solution (30:70 v/v): 30 ml of polyethylene glycol 400 (for example from Merck, Art. No. 8.17003.1000) and 70 ml of distilled water are homogenized in a 100 ml measuring flask. • PEG/PBS buffer pH 6.5 (80:20 v/v): 80 ml of polyethylene glycol 400 (for example from Merck, Art. No. 8.17003.1000) and 20 ml of PBS buffer pH 6.5 are homogenized in a 100 ml measuring flask. • Dimethyl sulfoxide (for example from Baker, Art. No. 7157.2500) • Distilled water. Preparation of the Starting Solution (Original Solution):
At least 4 mg of the test substance are weighed accurately into a wide-necked 10 mm screw V vial (from Glastechnik Gräfenroda GmbH, Art. No. 8004-WM-H/V15μ) with fitting screw cap and septum, in a pipetting robot DMSO is added to a concentration of 50 mg/ml and the mixture is shaken for 10 minutes.
Preparation of the Calibration Solutions:
Preparation of the Starting Solution for Calibration Solutions (Stock Solution):
With the aid of a pipetting robot, 10 μl of the original solution are transferred into a microtiter plate and made up with DMSO to a concentration of 600 μg/ml. The sample is shaken until everything has gone into solution.
Calibration Solution 1 (20 μg/ml):
1000 μl of DMSO are added to 34.4 μl of the stock solution, and the mixture is homogenized.
Calibration Solution 2 (2.5 μg/ml):
700 μl of DMSO are added to 100 μl of calibration solution 1, and the mixture is homogenized.
Preparation of the Sample Solutions:
Sample Solution for Solubilities of Up to 5 g/liter in PBS Buffer pH 6.5:
10 μl of the original solution are transferred into a microtiter plate, and 1000 μl of PBS buffer pH 6.5 are added.
Sample Solution for Solubilities of Up to 5 g/liter in PEG/Water (30:70):
10 μl of the original solution are transferred into a microtiter plate, and 1000 μl of PEG/water (30:70) are added.
Sample Solution for Solubilities of Up to 5 g/liter in PEG/PBS Buffer pH 6.5 (80:20):
10 μl of the original solution are transferred into a microtiter plate, and 1000 μl of PEG/PBS buffer pH 6.5 (80:20) are added.
The sample solutions prepared in this manner are shaken at 1400 rpm in a temperature-adjustable shaker (for example Eppendorf Thermomixer comfort Art. No. 5355 000.011 with interchangeable block Art. No. 5362.000.019) at 20° C. for 24 hours. In each case 180 μl are taken from these solutions and transferred into Beckman Polyallomer Centrifuge Tubes (Art. No. 343621). These solutions are centrifuged at about 223 000×g for one hour (for example Beckman Optima L-90K Ultracentrifuge with Type 42.2 Ti Rotor at 42 000 rpm). From each of the sample solutions, 100 μl of the supernatant are removed and diluted 1:5 and 1:100 with DMSO. From each dilution, a sample is transferred into a vessel suitable for HPLC analysis.
The samples are analyzed by RP-HPLC. Quantification is carried out using a two-point calibration curve of the test compound in DMSO. The solubility is expressed in mg/liter. Analysis sequence: 1) calibration solution […]; 2) calibration solution […]; 3) sample solution 1:5; 4) sample solution 1:100. […]

adenosine A2b receptor = adenosine A2b receptor (Homo sapiens (Human), UniProt P29275); experiment: Indirect determination of adenosine agonism by gene expression (luciferase reporter), A2b cells; format: cell-based; details: CHO cells stably transfected with adenosine A2b receptor, 50% of maximum stimulation
Description: (§1) B-1. Indirect Determination of the Adenosine Agonism by Way of Gene Expression
(§2) Cells of the CHO (Chinese Hamster Ovary) permanent line are transfected stably with the cDNA for the adenosine receptor subtypes A1, A2a and A2b. The adenosine A1 receptors are coupled to the adenylate cyclase by way of Gi proteins, while the adenosine A2a and A2b receptors are coupled by way of Gs proteins. In correspondence with this, the formation of cAMP in the cell is inhibited or stimulated, respectively. After that, expression of the luciferase is modulated by way of a cAMP-dependent promoter. The luciferase test is optimized, with the aim of high sensitivity and reproducibility, low variance and good suitability for implementation on a robot system, by varying several test parameters, such as cell density, duration of the growth phase and the test incubation, forskolin concentration and medium composition. The following test protocol is used for pharmacologically characterizing cells and for the robot-assisted substance screening:
(§3) The stock cultures are grown, at 37° C. and under 5% CO2, in DMEM/F12 medium containing 10% FCS (fetal calf serum) and in each case split 1:10 after 2-3 days. Test cultures are seeded in 384-well plates with 2000 cells per well and grown at 37° C. for approx. 48 hours. The medium is then replaced with a physiological sodium chloride solution (130 mM sodium chloride, 5 mM potassium chloride, 2 mM calcium chloride, 20 mM HEPES, 1 mM magnesium chloride hexahydrate, 5 mM sodium bicarbonate, pH 7.4). The substances to be tested, which are dissolved in DMSO, are pipetted into the test cultures (maximum final concentration of DMSO in the test mixture: 0.5%) in a dilution series of from 5×10^−11 M to 3×10^−6 M (final concentration). 10 minutes later, forskolin is added to the A1 cells and all the cultures are subsequently incubated at 37° C. for four hours. After that, 35 μl of a solution which is composed of 50% lysis reagent (30 mM disodium hydrogenphosphate, 10% glycerol, 3% TritonX100, 25 mM TrisHCl, 2 mM dithiotreitol (DTT), pH 7.8) and 50% luciferase substrate solution (2.5 mM ATP, 0.5 mM luciferin, 0.1 mM coenzyme A, 10 mM tricine, 1.35 mM magnesium sulfate, 15 mM DTT, pH 7.8) are added to the test cultures, which are shaken for approx. 1 minute and the luciferase activity is measured using a camera system. The EC50 values are determined, i.e., the concentrations at which 50% of the luciferase response is inhibited in the case of the A1 cell, and, respectively, 50% of the maximum stimulation with the corresponding substance is achieved in the case of the A2b and A2a cells. […] Pharmacol., 357, 1-9 (1998)].
(§4) Table A below lists the EC50 values of representative working examples for the receptor stimulation on adenosine A1, A2a and A2b receptor subtypes: […]

adenosine A2a receptor = adenosine A2a receptor (Homo sapiens (Human), UniProt P29274); experiment: Indirect determination of adenosine agonism by gene expression (luciferase reporter), A2a cells; format: cell-based; details: CHO cells stably transfected with adenosine A2a receptor, 50% of maximum stimulation
Description: as §1, §2, §3, §4

adenosine A1 receptor = adenosine A1 receptor (Homo sapiens (Human), UniProt P30542); experiment: Indirect determination of adenosine agonism by gene expression (luciferase reporter), A1 cells; format: cell-based; details: CHO cells stably transfected with adenosine A1 receptor; 1 μM forskolin; 50% inhibition of luciferase response
Description: as §1, §2, §3, §4

[2] = PEG 400/water solution (30:70 v/v), aqueous with cosolvent or surfactant or cyclodextrin, PEG 400/water (30:70 v/v), 20° C., read-out: Solubility [mg/liter] PEG/water solution (30:70 v/v)
[3] = aqueous buffer, PBS buffer pH 6.5, 20° C., read-out: Solubility [mg/liter] PBS buffer

Chain of adenosine A1 receptor (P30542 whole entry): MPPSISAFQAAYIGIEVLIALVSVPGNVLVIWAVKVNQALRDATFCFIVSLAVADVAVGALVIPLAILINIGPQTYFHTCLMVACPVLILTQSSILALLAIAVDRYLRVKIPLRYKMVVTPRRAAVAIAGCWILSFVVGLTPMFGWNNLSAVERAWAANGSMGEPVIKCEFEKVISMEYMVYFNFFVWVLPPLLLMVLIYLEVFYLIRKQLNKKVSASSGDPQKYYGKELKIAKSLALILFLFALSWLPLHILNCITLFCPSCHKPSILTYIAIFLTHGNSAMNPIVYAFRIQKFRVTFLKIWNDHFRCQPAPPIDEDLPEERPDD
Chain of adenosine A2b receptor (P29275 whole entry): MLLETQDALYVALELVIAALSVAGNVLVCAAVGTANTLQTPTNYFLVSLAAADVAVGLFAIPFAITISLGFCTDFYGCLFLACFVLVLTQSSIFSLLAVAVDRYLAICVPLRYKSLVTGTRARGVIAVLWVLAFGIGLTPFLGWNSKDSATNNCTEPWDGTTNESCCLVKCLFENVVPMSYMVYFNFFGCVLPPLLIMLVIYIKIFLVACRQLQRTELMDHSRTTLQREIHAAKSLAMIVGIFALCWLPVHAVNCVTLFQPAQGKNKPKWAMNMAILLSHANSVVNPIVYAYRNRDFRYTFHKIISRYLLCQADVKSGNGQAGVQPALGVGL
Chain of adenosine A2a receptor (P29274 whole entry): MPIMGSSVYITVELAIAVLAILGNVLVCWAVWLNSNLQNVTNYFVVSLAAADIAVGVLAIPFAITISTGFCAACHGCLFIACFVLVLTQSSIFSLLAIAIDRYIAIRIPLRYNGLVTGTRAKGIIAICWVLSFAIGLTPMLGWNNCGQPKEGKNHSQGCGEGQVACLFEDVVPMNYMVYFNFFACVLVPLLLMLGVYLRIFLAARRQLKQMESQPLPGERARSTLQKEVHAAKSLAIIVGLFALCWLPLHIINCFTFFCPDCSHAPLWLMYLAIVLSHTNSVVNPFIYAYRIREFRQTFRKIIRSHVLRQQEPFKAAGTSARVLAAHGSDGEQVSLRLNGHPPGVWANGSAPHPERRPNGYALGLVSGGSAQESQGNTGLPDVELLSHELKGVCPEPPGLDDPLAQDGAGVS
Chain of A1 receptor (P25099 whole entry): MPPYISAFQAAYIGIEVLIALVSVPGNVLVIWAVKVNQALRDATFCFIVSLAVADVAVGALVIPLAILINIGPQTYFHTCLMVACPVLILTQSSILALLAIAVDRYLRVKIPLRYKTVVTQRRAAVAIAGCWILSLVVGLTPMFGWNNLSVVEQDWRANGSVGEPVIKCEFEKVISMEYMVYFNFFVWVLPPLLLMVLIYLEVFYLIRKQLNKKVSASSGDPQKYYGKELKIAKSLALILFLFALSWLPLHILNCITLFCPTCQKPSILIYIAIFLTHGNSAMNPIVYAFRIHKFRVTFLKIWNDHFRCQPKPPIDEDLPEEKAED

| SMILES | GTP Shift (A1 receptor) | solubility at 24 h [1, 2] [mg/L] | EC50 (adenosine A2b receptor) [nM] | EC50 (adenosine A2a receptor) [nM] | EC50 (adenosine A1 receptor) [nM] | solubility at 24 h [1, 3] [mg/L] |
| --- | --- | --- | --- | --- | --- | --- |
| CC(Sc1nc(N)c(C#N)c(-c2ccc(OCCO)cc2)c1C#N)c1cccc(C(N)=O)c1 (single isomer, unassigned) [Example 61, 3-[1-({6-Amino-3,5-dicyano-4-[4-(2-hydroxyethoxy)phenyl]pyridin-2-yl}sulfanyl)ethyl]benzenecarboxamide] | 1.5 | 90 (≈ 196 µM) | – | – | – | – |
| COCCOc1ccc(-c2c(C#N)c(N)nc(SC(C)c3cccc(C(N)=O)c3)c2C#N)cc1 (single isomer, unassigned) [Example 64, 3-[1-({6-Amino-3,5-dicyano-4-[4-(2-methoxyethoxy)phenyl]pyridin-2-yl}sulfanyl)ethyl]benzenecarboxamide] | 2.8 | 260 (≈ 549 µM) | – | – | – | – |
| N#Cc1c(N)nc(SCc2ccnc(C(=O)NC3CC3)c2)c(C#N)c1-c1ccccc1 [Example 13] | – | 210 (≈ 492 µM) | 46 | 108 | 0.08 | – |
| N#Cc1c(N)nc(SCc2cccc(C(N)=O)c2)c(C#N)c1-c1ccccc1 [Example 33] | – | 53 (≈ 138 µM) | 3.9 | 117 | 0.3 | 5 (≈ 13 µM) |
| CNC(=O)c1cc(CSc2nc(N3CC(O)C3)c(C#N)c(-c3ccccc3)c2C#N)ccn1 [Example 70, 4-({[3,5-Dicyano-6-(3-hydroxyazetidin-1-yl)-4-phenylpyridin-2-yl]sulfanyl}methyl)-N-methylpyridine-2-carboxamide] | – | – | 1450 | 272 | 0.2 | – |
| CNC(=O)c1cc(CSc2nc(N(C)CCO)c(C#N)c(-c3ccccc3)c2C#N)ccn1 [Example 75, 4-[({3,5-Dicyano-6-[(2-hydroxyethyl)(methyl)amino]-4-phenylpyridin-2-yl}sulfanyl)methyl]-N-methylpyridine-2-carboxamide] | – | – | 175 | 1010 | 0.2 | – |
| CNC(=O)c1cc(CSc2nc(NCCO)c(C#N)c(-c3ccc(OCCO)nc3)c2C#N)ccn1 [Example 78] | – | – | 393 | 355 | 0.1 | – |
| CNC(=O)c1cc(CSc2nc(NC[C@H](O)CO)c(C#N)c(-c3ccccc3)c2C#N)ccn1 [Example 83] | – | – | 593 | 2180 | 0.2 | – |
| CCNC(=O)c1cccc(CSc2nc(N3CCCC3)c(C#N)c(-c3ccc(OCCO)cc3)c2C#N)c1 [Example 98, 3-[({3,5-Dicyano-4-[4-(2-hydroxyethoxy)phenyl]-6-pyrrolidin-1-ylpyridin-2-yl}sulfanyl)methyl]-N-ethylbenzenecarboxamide] | – | – | 600 | 1540 | 0.3 | – |
| N#Cc1c(NC[C@@H](O)CO)nc(SCc2cccc(C(N)=O)c2)c(C#N)c1-c1ccccc1 [Example 99, 3-{[(3,5-Dicyano-6-{[(2R)-2,3-dihydroxypropyl]amino}-4-phenylpyridin-2-yl)sulfanyl]methyl}-benzenecarboxamide] | – | 440 (≈ 957 µM) | – | – | 0.9 | 9 (≈ 19.6 µM) |
| N#Cc1c(N)nc(SCc2cccc(C(=O)NCCN)c2)c(C#N)c1-c1ccccc1 [Example 101, 3-{[(6-Amino-3,5-dicyano-4-phenylpyridin-2-yl)sulfanyl]methyl}-N-(2-aminoethyl)benzenecarboxamide hydrochloride] | – | – | 163 | 440 | 0.2 | – |
